Results published in USRE38332E1, “Selected soluble esters of hydroxyl-containing indolocarbazoles” (Cephalon, Inc., priority 1995, dated 2003).

Tested on: ChAT activity in spinal cord cultures
Test: Effect of indolocarbazole esters on ChAT activity in dissociated spinal cord cultures
Type: cell-based, rat
Conditions: 500 nM
Description: The effect of indolocarbazole esters of the invention on ChAT activity was assayed in dissociated spinal cord cultures prepared from fetal rats. ChAT is the enzyme that catalyzes the synthesis of the neurotransmitter acetylcholine, and it is a specific biochemical marker for cholinergic neurons. In the spinal cord, the large majority of cholinergic neurons are motor neurons. Assay of this enzyme may thus be used as an indication of the effects of a factor (or factors) on the survival and/or differentiation of cholinergic neurons and/or regulation of this enzyme. The procedure used for the assay is that described in Example 6 of WO 94/02488. Fourteen esters were tested in the spinal cord ChAT assay to determine their relative efficacy, and the results are summarized in Table 4.

Row | SMILES | Spinal Cord ChAT Activity (% of Control) 500 nM
1 | COC1(COC(=O)C(N)CCC(=O)O)CC2OC1(C)n1c3ccccc3c3c4c(c5c6ccccc6n2c5c31)C(=O)NC4.Cl (stereo not drawn) [Example 13, (I-5)-Glutamate Hydrochloride] | 168 % of Control
2 | COC1(COC(=O)c2cccnc2)CC2OC1(C)n1c3ccccc3c3c4c(c5c6ccccc6n2c5c31)C(=O)NC4.Cl (stereo not drawn) [Example 5, (I-5)-Pyridine-3-carboxylate Hydrochloride] | 137 % of Control
3 | COC1(COC(=O)C(N)Cc2cnc[nH]2)CC2OC1(C)n1c3ccccc3c3c4c(c5c6ccccc6n2c5c31)C(=O)NC4.Cl.Cl (stereo not drawn) [Example 9, (I-5) Histidinate Dihydrochloride] | 158 % of Control
4 | COC1(COC(=O)C(C)(C)N)CC2OC1(C)n1c3ccccc3c3c4c(c5c6ccccc6n2c5c31)C(=O)NC4.Cl (stereo not drawn) [Example 12, (I-5)-α-Aminoisobutyrate Hydrochloride] | 155 % of Control
5 | COC1(COC(=O)CN)CC2OC1(C)n1c3ccccc3c3c4c(c5c6ccccc6n2c5c31)C(=O)NC4.Cl (stereo not drawn) [Example 2, (I-5)-Glycinate Hydrochloride] | 157 % of Control

Same assay, conditions: 1000 nM

Row | SMILES | Spinal Cord ChAT Activity (% of Control) 1000 nM
6 | COC1(COC(=O)C(N)CCC(=O)O)CC2OC1(C)n1c3ccccc3c3c4c(c5c6ccccc6n2c5c31)C(=O)NC4.Cl (stereo not drawn) [Example 13, (I-5)-Glutamate Hydrochloride] | 142 % of Control
7 | COC1(COC(=O)c2cccnc2)CC2OC1(C)n1c3ccccc3c3c4c(c5c6ccccc6n2c5c31)C(=O)NC4.Cl (stereo not drawn) [Example 5, (I-5)-Pyridine-3-carboxylate Hydrochloride] | 139 % of Control
8 | COC1(COC(=O)C(N)Cc2cnc[nH]2)CC2OC1(C)n1c3ccccc3c3c4c(c5c6ccccc6n2c5c31)C(=O)NC4.Cl.Cl (stereo not drawn) [Example 9, (I-5) Histidinate Dihydrochloride] | 143 % of Control
9 | COC1(COC(=O)C(C)(C)N)CC2OC1(C)n1c3ccccc3c3c4c(c5c6ccccc6n2c5c31)C(=O)NC4.Cl (stereo not drawn) [Example 12, (I-5)-α-Aminoisobutyrate Hydrochloride] | 150 % of Control
10 | COC1(COC(=O)CN)CC2OC1(C)n1c3ccccc3c3c4c(c5c6ccccc6n2c5c31)C(=O)NC4.Cl (stereo not drawn) [Example 2, (I-5)-Glycinate Hydrochloride] | 151 % of Control

Same assay, conditions: 10 μM

Row | SMILES | increase of ChAT activity over control
11 | COC1(COC(=O)c2cccnc2)CC2OC1(C)n1c3ccccc3c3c4c(c5c6ccccc6n2c5c31)C(=O)NC4.Cl (stereo not drawn) [Example 5, (I-5)-Pyridine-3-carboxylate Hydrochloride] | *This compound increases ChAT activity 169% over control at 10 μM

Tested on: not listed separately
Test: In vitro metabolism of I-5 esters in rat plasma
Type: in vitro ADME
Conditions: 5000 ng/mL, 37° C.
Description: Freshly-collected plasma from male Sprague-Dawley rats and presumably-healthy drug-free male humans was pooled and immediately frozen. The plasma was kept frozen at −90° C. and each aliquot was thawed only once for use in incubations. Stock solutions of the indolocarbazole esters were prepared in DMSO and were used to prepare standard curves in plasma that had been boiled to two minutes. Boiled plasma was divided into 500 μL aliquots, mixed with an aliquot of the internal standard, and spiked with the respective stock indolocarbazole ester solutions to prepare the standard curve. Thawed plasma was divided into 500 μL aliquots, placed in screw-cap vials, mixed with internal standard, and spiked with stock solutions of the respective indolocarbazole esters to yield a nominal concentration of 5000 ng/mL.
Incubations were then performed at 37° C. in a shaking water bath for 0, 0.5, 1, 2, 5, 10, 15, 30, and 60 minutes and quenched by addition of 5 mL methylene chloride. All tubes (standards and experimentals) were extracted for 15 minutes by shaking, and centrifuged. The methylene chloride layer was removed, dried under a stream of nitrogen, and reconstituted in DMSO. Fifty μL of the reconstituted extracts were analyzed by reverse-phase HPLC with detection at 290 nm. The mobile phase and gradient conditions are given below: […]

Row | SMILES | maximum rates of hydrolysis
12 | COC1(COC(=O)CN)CC2OC1(C)n1c3ccccc3c3c4c(c5c6ccccc6n2c5c31)C(=O)NC4.Cl (stereo not drawn) [Example 2, (I-5)-Glycinate Hydrochloride] | more extensively hydrolyzed

Tested on: not listed separately
Test: Solubility of the esters at 1 mg/ml in water and buffer solutions
Conditions: 10 mM Tris buffer pH 9
Description: Indolocarbazole esters were dissolved in water, dimethylsulfoxide (DMSO) and the following buffer solutions to determine solubility and to observe conversion to indolocarbazole I-5. Samples were analyzed by HPLC using UV detection at 290 nm.
Solution 2 was a 10 mM acetate buffer at pH 4 which was prepared by weighing 0.68 g of sodium acetate 3H2O into 500 ml of water and adjusting the pH with acetic acid.
Solution 3 was a 10 mM phosphate buffer, pH 7, which was prepared by weighing 0.30 g of monobasic sodium phosphate and 0.36 g of dibasic sodium phosphate into 500 ml of water, stirring until completely dissolved, and adjusting the pH with hydrochloric acid.
Solution 4 was a 10 mM Tris buffer, pH 9, which was prepared by weighing 0.79 g of Tris (tris(hydroxymethyl)aminomethane hydrochloride) into 500 ml of water, stirring until completely dissolved, and adjusting the pH with sodium hydroxide.
Sample solutions were prepared by weighing 0.5-1 mg of the indolocarbazole ester into an amber 1.5 ml autosampler vial, to which the appropriate quantity of one of the buffer solutions was added, in order to achieve a final concentration of 1 mg/ml. The sample solutions were vortexed and sonicated for 10 minutes. Fifty μl aliquots were placed into 1.5 ml amber autosampler vials. The reaction was quenched at a selected time interval by addition of 450 μl DMSO to the vial.

Row | solubility in Tris buffer | SMILES
13 | not completely soluble | COC1(COC(=O)c2cccnc2)CC2OC1(C)n1c3ccccc3c3c4c(c5c6ccccc6n2c5c31)C(=O)NC4.Cl (stereo not drawn) [Example 5, (I-5)-Pyridine-3-carboxylate Hydrochloride]
14 | not completely soluble | COC1(COC(=O)C(N)Cc2cnc[nH]2)CC2OC1(C)n1c3ccccc3c3c4c(c5c6ccccc6n2c5c31)C(=O)NC4.Cl.Cl (stereo not drawn) [Example 9, (I-5) Histidinate Dihydrochloride]
15 | not completely soluble | COC1(COC(=O)C(C)(C)N)CC2OC1(C)n1c3ccccc3c3c4c(c5c6ccccc6n2c5c31)C(=O)NC4.Cl (stereo not drawn) [Example 12, (I-5)-α-Aminoisobutyrate Hydrochloride]

Same assay, conditions: 10 mM acetate buffer pH 4

Row | solubility in acetate buffer | SMILES
16 | not completely soluble | COC1(COC(=O)c2cccnc2)CC2OC1(C)n1c3ccccc3c3c4c(c5c6ccccc6n2c5c31)C(=O)NC4.Cl (stereo not drawn) [Example 5, (I-5)-Pyridine-3-carboxylate Hydrochloride]
17 | completely soluble | COC1(COC(=O)C(N)Cc2cnc[nH]2)CC2OC1(C)n1c3ccccc3c3c4c(c5c6ccccc6n2c5c31)C(=O)NC4.Cl.Cl (stereo not drawn) [Example 9, (I-5) Histidinate Dihydrochloride]
18 | completely soluble | COC1(COC(=O)C(C)(C)N)CC2OC1(C)n1c3ccccc3c3c4c(c5c6ccccc6n2c5c31)C(=O)NC4.Cl (stereo not drawn) [Example 12, (I-5)-α-Aminoisobutyrate Hydrochloride]

Same assay, conditions: 10 mM phosphate buffer pH 7

Row | solubility in phosphate buffer | SMILES
19 | not completely soluble | COC1(COC(=O)c2cccnc2)CC2OC1(C)n1c3ccccc3c3c4c(c5c6ccccc6n2c5c31)C(=O)NC4.Cl (stereo not drawn) [Example 5, (I-5)-Pyridine-3-carboxylate Hydrochloride]
20 | not completely soluble | COC1(COC(=O)C(N)Cc2cnc[nH]2)CC2OC1(C)n1c3ccccc3c3c4c(c5c6ccccc6n2c5c31)C(=O)NC4.Cl.Cl (stereo not drawn) [Example 9, (I-5) Histidinate Dihydrochloride]
21 | not completely soluble | COC1(COC(=O)C(C)(C)N)CC2OC1(C)n1c3ccccc3c3c4c(c5c6ccccc6n2c5c31)C(=O)NC4.Cl (stereo not drawn) [Example 12, (I-5)-α-Aminoisobutyrate Hydrochloride]

Same assay, conditions: water (Solution 1)

Row | solubility in water | SMILES
22 | not completely soluble | COC1(COC(=O)c2cccnc2)CC2OC1(C)n1c3ccccc3c3c4c(c5c6ccccc6n2c5c31)C(=O)NC4.Cl (stereo not drawn) [Example 5, (I-5)-Pyridine-3-carboxylate Hydrochloride]
23 | completely soluble | COC1(COC(=O)C(N)Cc2cnc[nH]2)CC2OC1(C)n1c3ccccc3c3c4c(c5c6ccccc6n2c5c31)C(=O)NC4.Cl.Cl (stereo not drawn) [Example 9, (I-5) Histidinate Dihydrochloride]
24 | completely soluble | COC1(COC(=O)C(C)(C)N)CC2OC1(C)n1c3ccccc3c3c4c(c5c6ccccc6n2c5c31)C(=O)NC4.Cl (stereo not drawn) [Example 12, (I-5)-α-Aminoisobutyrate Hydrochloride]
